What was measured:
Type in all cases: in vivo
[1] = test system: Aphis gossypii; assay: Test Example 2: pesticidal effect against Aphis gossypii (Part 2), same test as Test Example 1 with other insecticides, death rate and Colby theoretical value; conditions: other insecticide 0.078 ppm alone (compound 261 0 ppm); for Theoretical value calculated by Colby's formula: Table 21; for Pesticidal effect against Aphis gossypii, death rate: cucumber leaf disk, 3 days
Text: (§1) A leaf disk having a diameter of 2.0 cmφ was cut out from a cucumber grown in a pot and was placed in a 5.0 cm-Schale. Test admixture solutions, prepared by diluting the composition of the present invention with a 50% aqueous acetone solution (0.05% Tween 20 added) to predetermined concentrations specified in Table 18, test single active ingredient solutions in which only compound 261 had been dissolved without mixing other insecticides, or test single active ingredient solutions in which only other insecticides had been dissolved without mixing any pyripyropene derivative were spread over the cucumber leaf disk. The leaf disk was then air dried. Ten larvae at the first instar born of Aphis gossypii were released in the Schale. Thereafter, the Schale was lidded and was allowed to stand in a humidistat chamber (light period 16 hr-dark period 8 hr) (25° C.). […] Death rate (%)={number of dead larvae/(number of survived larvae+number of dead larvae)}×100
(§2) Colby's formula: Theoretical value (%)=100−(A×B)/100
(§3) When the pesticidal effect (Table 18) of the composition of the present invention in, an admixture form against Aphis gossypii exceeded the theoretical value calculated by the Colby's formula shown in Table 19, the admixture was determined to have a synergistic effect.
The same test as in Test Example 1 was performed, except that the other insecticides were changed to those specified in Table 20.

[2] = test system: Aphis gossypii; assay: Test Example 1: pesticidal effect against Aphis gossypii (Part 1), cucumber leaf disk, death rate of first-instar larvae and Colby theoretical value; conditions: other insecticide 0.078 ppm alone (compound 261 0 ppm); for Theoretical value calculated by Colby's formula: Table 19; for Death rate of Aphis gossypii by single active ingredient or admixture: cucumber leaf disk, first-instar larvae, 3 days
Text: as §1, §2
wherein A: 100—(death rate when treatment was performed only with compound 261); and • B: 100—(death rate when treatment was performed only with each of flonicamid, acetamiprid, fipronil, imidacloprid)
as §3

[3] = test system: Plutella xylostella; assay: Test Example 3: pesticidal effect against Plutella xylostella, cabbage leaf disk, death rate of second-instar larvae and Colby theoretical value; conditions: other insecticide 0.156 ppm alone (compound 261 0 ppm)
Text: A leaf disk having a diameter of 5.0 cmφ was cut out from a cabbage grown in a pot and was placed in a plastic cup. Test admixture solutions, prepared by diluting the composition of the present invention with a 50% aqueous acetone solution (0.05% Tween 20 added) to predetermined concentrations specified in Table 22, test single active ingredient solutions in which only compound 261 had been dissolved without mixing other insecticides, or test single active ingredient solutions in which only other insecticides had been dissolved without mixing any pyripyropene derivative were spread over the cabbage leaf disk. The leaf disk was then air dried. Five larvae at the second instar born of Plutella xylostella were released in the cup. Thereafter, the cup was lidded and was allowed to stand in a humidistat chamber (light period 16 hr-dark period 8 hr) (25° C.). […] Death rate (%)={number of dead larvae/(number of survived larvae+number of dead larvae)}×100
Colby's formula: Theoretical value (%)=100−(A×B)/100 […]
When the pesticidal effect (Table 22) of the composition of the present invention in an admixture form against Plutella xylostella exceeded the theoretical value calculated by the Colby's formula shown in Table 23, the admixture was determined to have a synergistic effect.

Compound	Theoretical value calculated by Colby's formula [1] [%]	Pesticidal effect against Aphis gossypii, death rate [1] [%]	Theoretical value calculated by Colby's formula [2] [%]	Death rate of Aphis gossypii by single active ingredient or admixture [2] [%]	also measured
CN/C(=N\[N+](=O)[O-])NCc1cnc(Cl)s1 [clothianidin]	79	79	–	–	–
C/C(=N\C#N)N(C)Cc1ccc(Cl)nc1 [acetamiprid]	–	–	58	58	–
O=[N+]([O-])NC1=NCCN1Cc1ccc(Cl)nc1 [imidacloprid]	–	–	20	20	–
N#Cc1nn(-c2c(Cl)cc(C(F)(F)F)cc2Cl)c(N)c1[S+]([O-])C(F)(F)F (stereo not shown) [fipronil]	–	–	0	0	–
CN/C(=N/CC1CCOC1)N[N+](=O)[O-] (stereo not shown) [dinotefuran]	40	40	–	–	–
N#CCNC(=O)c1cnccc1C(F)(F)F [flonicamid]	–	–	10	10	–
CN1COCN(Cc2cnc(Cl)s2)/C1=N\[N+](=O)[O-] [thiamethoxam]	65	65	–	–	–
CCOCn1c(-c2ccc(Cl)cc2)c(C#N)c(Br)c1C(F)(F)F [chlorfenapyr]	–	–	–	–	Theoretical value calculated by Colby's formula ([3]; Table 23): 0%; Pesticidal effect against Plutella xylostella, deathrate ([3]; cabbage leaf disk, second-instar larvae, 3 days): 0%

Source: US9675075B2, “Pest control composition” (MEIJI SEIKA PHARMA CO., LTD., priority 2007, dated 2017)
